From the NIST ThermoML archive (doi:10.1016/j.jct.2015.09.032)
Numbers after ± are expanded uncertainties.

What was measured:
[1] = Crystal; DTA
[2] = Molar enthalpy of transition or fusion; details: Crystal; DSC

Normal melting temperature [1]: 169.2 ± 0.61 °C | Molar enthalpy of transition or fusion [2]: 36.5 ± 1.7 kJ/mol
SMILES: CN(C)CCOC(c1ccccc1)c1ccccc1.Cl [2-diphenylmethoxy-N,N-dimethylethanamine hydrochloride]
